{"source": "patent US12180160B1", "about": "“1-(naphthalen-2-yloxy)-3-(piperidin-1-yl)propan-2-ol as an eco-friendly insecticidal agent against Spodoptera littoralis (boisd.)” (priority 2023, dated 2024)", "test_system": "Spodoptera littoralis larvae (2nd and 4th instars)", "test": "Insecticidal bioassay screening (castor leaf dip)", "assay_type": "in vivo", "details": "for LC50 (ppm): after 72 h of treatment; for Toxic ratio: 72 h, fenoxycarb's LC50/compound's LC50 × 100", "protocol": "Five concentrations (200, 100, 50, 25, 12.5 ppm) were designed for this synthetic compound and the reference fenoxycarb compound as the dynamic ingredients based on ppm via diluting the commercial formulation.\nIn this experiment, castor leaves are immersed in each of the previously prepared concentrations of the components for 10 seconds and then left to dry for 60 minutes. Larvae of the second and fourth instars of each checked strain are prepared with treated leaves in gauze-covered glass containers for 72 hrs. An untreated control is made in which leaves are dipped in triton x-100 and distilled water only. Then the preserved leaves were removed & fresh, untreated leaves were provided for 72 hours. Three replicates (10 larvae each) were checked for each concentration. Daily inspection was carried out for all treatments and mortality percentages were recorded 3 days (72 hours) after treatment. The average mortality percentage was corrected employing Abbott's formula. The corrected mortality rate for each of the previously synthesized compounds is statistically calculated according to Finney (1970). Through this rate, the corresponding concentration test lines (LDP lines) are assessed. Fifty and ninety percent mortality are determined, and the regression values for the checked products were previously evaluated.", "data": [{"smiles": "CCOC(=O)NCCOc1ccc(Oc2ccccc2)cc1", "note": "[Fenoxycarb, reference compound]", "values": [{"measurement": "LC50 (ppm)", "setting": "2nd instar larvae of S. littoralis", "value": 2.73, "unit": "ppm"}, {"measurement": "Toxic ratio", "setting": "2nd instar larvae", "value": 100}, {"measurement": "LC50 (ppm)", "setting": "4th instar larvae of S. littoralis", "value": 43.231, "unit": "ppm"}, {"measurement": "Toxic ratio", "setting": "4th instar larvae", "value": 1}]}, {"smiles": "OC(COc1ccc2ccccc2c1)CN1CCCCC1", "note": "(stereo not drawn) [Compound 1, 1-(naphthalen-2-yloxy)-3-(piperidin-1-yl)propan-2-ol]", "values": [{"measurement": "Toxic ratio", "setting": "2nd instar larvae", "value": 10.9}, {"measurement": "Toxic ratio", "setting": "4th instar larvae", "value": 59.8}, {"measurement": "LC50", "setting": "Spodoptera littoralis, foliar", "value": 25, "unit": "µg/mL"}, {"measurement": "morphological effect on Spodoptera littoralis (FIGURE)", "setting": "after administration of the compound", "value": "morphological malformations"}, {"measurement": "activity against Spodoptera littoralis (in words)", "setting": "compared with reference insecticide fenoxycarb", "value": "active against Spodoptera littoralis"}]}]}
